# Assay results published in US6218417A, “Ace-inhibitor nitric salts” (priority 1997, dated 2001).
# Counter-ions that a name gives are not always drawn.
# Key:
# [1] = tested on: platelet aggregation (collagen-induced); experiment: Platelet-antiaggregating activity, in-vivo collagen model (Pinon et al.); parameters: species or system rats; conditions: 10 mg/Kg/os per day (as Enalapril cation) for five days; collagen 2 mg/Kg i.v.; referred to control group
# Protocol: The in-vivo model described by Pinon et al., J. Pharm. Methods 12, 79-84, 1984, was used.
# Two groups of 6 rats each, weighing about 200 to 250 g, were treated with an oral. dose of 10 mg/Kg/die of Enalapril maleate or nitrate respectively (the dose is referred to the amount of Enalapril cation in the salt) for five days, while a third group acted as a control group. About 18 hours before the last treatment, the animals were fasted. One hour after this treatment the animals were anaesthetised with 10% ethyl urethane (1 g/Kg intraperitoneally) and the left jugular vein and the right carotid artery were cannulated. Collagen (type 6, Sigma) was then administered intravenously at a dose of 2 mg/Kg. Three minutes later two blood samples, A and B, were collected from the carotid artery of each animal.
# 1.6 ml of EDTA/formalin buffer (24 mM tetrasodium EDTA, 1.3 mM KH2 PO4, 13.4 mM Na2 HPO4) was added to the first sample (sample A) containing 0.4 ml of blood.
# The second blood sample (sample B) had the same volume as the previous sample (0.4 ml of blood) but, instead of the buffer, 1.6 ml of a saline solution (physiological NaCl solution) was added. […]
# A microscope platelet count was then performed. […] The results shown in Table III are expressed as a % of platelet aggregation and are referred to the % value obtained in the control group.
# [2] = tested on: angiotensin-I-induced hypertension; experiment: Antihypertensive activity: inhibition of angiotensin I-induced hypertension (Laubie et al.); type: in vivo, rats; conditions: angiotensin I 100 μg/Kg i.v.
# Protocol: The antihypertensive activity of the nitrate salts of the compounds of the invention was determined in accordance with the method of Laubie et al., J. Cardiovasc. Pharmacol. 6, 1076, 1984. No 6 rats weighing about 200 to 250 g were used per experimental group. Four groups were formed, which were intraperitoneally treated respectively as shown below:
# The doses are referred to the amount of Enalapril (cation) in the salt. The antihypertensive response was evaluated as per-cent inhibition of the hypertension induced by the administration of a dose of 100 μg/Kg i.v. of angiotensin I as described in the above article.
# [3] = tested on: bronchial spasm induced by substance P; experiment: Bronchial spasm induced by substance P (Subissi et al.; Konzett); type: in vivo, female Guinea pigs; conditions: for Tidal air change % in bronchial spasm induced by substance P: 30 minutes before substance P (200 μg/Kg)
# Protocol: Activity was evaluated measuring the strengthening of bronchial spasm induced by substance P, determined in accordance with the method of Subissi et al., Br. J. Pharmacol. 100, 502-6, 1990. The model described by Subissi is predictive of bronchial side effects due to the administration of ACE inhibitors.
# Four groups (6 animals/group) of female Guinea pigs weighing about 300 to 400 g were anaesthetised with ethyl urethane (200 mg/Kg) under artificial pressure at constant positive pressure. The compounds were administered intra-peritoneally 30 minutes before substance P. The salt doses administered were the same as in Example 4. The changes in tidal air were then measured in accordance wuth the method of Konzett, Arch. Exp. Pathol. Pharmacol. 195, 71, 1940, before and after the administration of substance P (200 μg/Kg), with or without the test salts, i.e. Enalapril maleate and nitrate.
# [4] = 100 μg/Kg/i.p. (as Enalapril cation)
# [5] = 300 μg/Kg/i.p. (as Enalapril cation)
Structure (SMILES),Antiaggregating activity % [1] [%],"Inhibition % for angiotensin-I-induced hypertension [2, 4] [%]","Inhibition % for angiotensin-I-induced hypertension [2, 5] [%]",Tidal air change % in bronchial spasm induced by substance P ([3]; 100 μg/Kg/i.p.),Tidal air change % in bronchial spasm induced by substance P ([3]; 300 μg/Kg/i.p.),"Respiratory profile ([3]; compared to Enalapril maleate, 100 and 300 μg/Kg i.p.)"
"CCOC(=O)[C@H](CCc1ccccc1)N[C@@H](C)C(=O)N1CCC[C@H]1C(=O)O [Enalapril maleate, reference compound]",5,18,55,+16%,+28%,
"CCOC(=O)[C@H](CCc1ccccc1)N[C@@H](C)C(=O)N1CCC[C@H]1C(=O)O [Enalapril nitrate, (S)-1-[N-[1-(ethoxycarbonyl)-3-phenylpropyl]-L-alanyl]-L-proline]",58,35,67,-5%,-7%,better respiratory profile than Enalapril maleate at both tested doses
